Data published in patent US6242428A, “Nucleoside analogs and uses in treating Plasmodium falciparum infection” (Unisearch Limited, priority 1998, dated 2001).
“Also recorded” adds a separate entry of the source. Where two headings read alike, the source gives them in different places.

Key:
P. falciparum = experiment: In vitro toxicity against P. falciparum in culture (radiolabelled hypoxanthine incorporation / lactate dehydrogenase assay); assay type: cell-based, Plasmodium falciparum, FCQ27; conditions: for IC50: Plasmodium falciparum; for toxicity against P. falciparum, in words: statement in the transport and metabolism study
Protocol: P. falciparum, FCQ27, was maintained in culture using the techniques described by Trager & Jensen (W. Traqer and J. B. Jensen, Science, 193 673-675 (1976)). Cultures containing 2% hematocrit suspensions of parasitized human type O^+ erythrocytes in RPMI 1640 medium, supplemented with 25 mM HEPES-KOH, pH 7.2, 25 mM NaHCO3 and 10% human type O^+ serum (v/v) are maintained in modular incubator chambers at 37° C. in a gas mixture of 5% O2, 5% CO2 and 90% N2. The isolate of P. falciparum used in these experiments was FCQ27, routinely maintained in synchronized or asynchronous in vitro cultures at low hematocrit.
The potential toxicity of nucleoside analogues against P. falciparum in culture was tested in microtitre plates over the range of drug concentrations for 24 hours. The procedures for monitoring parasite viability is well established (A. M. Gero, H. V. Scott, W. J. O'Sullivan and R. I. Christopherson, Mol. Biochem. Parasitol. 34, 87-89 (1989)) and is based on radiolabelled hypoxanthine or isoleucine incorporation. The incorporation of [G-^3 H]hypoxanthine into the nucleic acids of P. falciparum was used to assess the viability of the parasite in vitro. Microculture plates were prepared with each well containing 225 μl of a 2% hematocrit culture of asynchronous parasited erythrocytes (1% parasitized cells). Each plate, containing varying concentrations of the drug to be studied (up to 200 μM final concentration for initial screen), was incubated for 24 h at 37° C. in a gas mixture of 5% O2, 5% CO2 and 90% N2, at which point [G-^3 H] hypoxanthine was added to each well and the incubation continued under identical conditions for a further 18-20 h. The control infected cells (i.e. without drug), routinely reached a parasitemia of 6-8% before harvesting. Expediency was aided by 96-well plate counter using lactate dehydrogenase for the drug susceptibility assay (L. K. Basco, F. Marguet, M. T. Makler and J. Lebbras, Exp. Parasitol. 80, 260-271 (1995); M. T. Makler and D. J. Hinrichs; Am. J. Trop. Med. Hyg. 48, 205-210 (1993)). This assay gave the identical results to the hypoxanthine technique. In addition, for each experiment, microscopic counting of Giemsa stained thin slides was used as a control.
The biological screen involved evaluation of the compounds against the protozoan P. falciparum in in vitro culture. The range of drug concentrations was used independently by two assays. One, radiolabelled hypoxanthine incorporation into the nucleic acid of P. falciparum, and the other, more expedient assay, a 96-well plate susceptibility assay using lactate dehydrogenase. Both assays gave identical results. In addition, microscopic counting of Giemsa stained thin slides was used as a control. Examples of experimental curves are attached as Appendix 2. The biological tests were done at several concentrations. The highest concentration was 200 μM, the compounds were considered active at concentrations less than 40 μM.

[1] = test system: P. falciparum infected erythrocytes (trophozoites); assay type: in vitro ADME, human erythrocytes infected with Plasmodium falciparum
Protocol: (§1) The metabolism of the L-nucleoside conjugates was studied by HPLC analysis. The primary aim was to determine their ability to be catabolized by parasite purine salvage enzymes. Some effect on the purine metabolic pools was also observed.
(§2) For each HPLC determination 200 μL of packed cells of 80-90% trophozoite infected cells were used. These were isolated from in vitro cultures by synchronization of the parasites in in vitro cultures using sterile D-sorbitol (L. Lambros and J. P. Vanderberg, Parasitol. 65, 418-420 (1979)) followed by separation of the trophozoites from non infected erythrocytes by Percoll gradients as described previously (A. M. Gero, H. V. Scott, W. J. O'Sullivan and R. I. Christopherson, Mol. Biochem. Parasitol. 34, 87-89 (1989)). Trophozoites were incubated at 37° C. for 2 hours with each compound to be tested. Compounds were incubated with both whole infected cells as whole and lyzed uninfected normal erythrocytes to determine:
a) entry to the cell (whether they were transported);
Drug incubation was terminated by centrifugation through silicon oil using the method of Upston and Gero (J. M. Upston and A. M. Gero, Biochem. Biophys. Acta. 1236, 249-258 (1995)). This procedure separated intact trophozoites from extracellular non-transported drug solution.
(§3) The metabolism of nucleosides with potential chemotherapeutic activity was assessed by the analysis of cytoplasmic samples by reverse phase ion-pair high performance liquid chromatography (R. S. Toguzov, Y. V. Tikhonov, A. M. Pimenov, V. Prokudin, Journal of Chromatography, I. Biomedical Appl. 434, 447-453 (1988)). Nucleotides, nucleosides and bases were separated by this HPLC method.
It has been established that transport and uptake in parasite invaded cells is different from that of normal blood erythrocytes (A. M. Gero & A. M. Wood, In: Pyrine & Pyrimidine Methabolism in Man VII, Part A. (R. A. Harkness et al., Eds) Plenum Press, NY, 169-172 (1991)). Invasion by the malaria parasite comprises the cell membrane, allowing penetration of unnatural substances of various size and shape, whereas normal cells are very selective in uptake. It was shown that L-nucleosides and their derivatives easily penetrate invaded cells, while they have a very slow rate of uptake into normal cells, if they enter at all. In order to obtain preliminary data on transport, uptake and metabolism, the HPLC method was used to analyze the following 10 Lipitek compounds: L-101, L-103, L-109, L-111, L-117, L-133, L-138, GCl 1007, GCl 1027, GCl 1069.
(§4) These compounds were chosen for the identification of possible metabolites. In this experiment the compounds were incubated with both whole infected cells, and with whole and lysed uninfected cells, followed by the separation of unreacted compound and HPLC analysis.

[2] = test system: P. falciparum strain D6 (chloroquin non-resistant); experiment: U.S. Army Antimalarial Test Program in vitro screen, strain D6; assay type: cell-based, Plasmodium falciparum; conditions: 15 dimers, D6 and W2 stated together
Excerpt: (§5) Fifteen L-nucleoside dimers (L-101, L-103, L-103A, L-107, L-110, L-111, L-112, L-114, L-117, L-120, L-122, L-124, L-125, L-133 & L-138) from Lipitek's library were submitted for in vitro screen to the U.S. Army Antimalarial Test Program (for the structures of the compounds, see FIG. 7). The compounds have been tested for their activity against two P. falciparum strains: D6 (chloroquin non-resistant) and W2 (chloroquin resistant).

[3] = test system: P. falciparum strain W2 (chloroquin resistant); experiment: U.S. Army Antimalarial Test Program in vitro screen, strain W2; assay type: cell-based, Plasmodium falciparum; conditions: 15 dimers, D6 and W2 stated together
Excerpt: as §5

[4] = test system: P. falciparum infected erythrocytes (trophozoites); assay type: in vitro ADME, human erythrocytes infected with Plasmodium falciparum; remark: listed apart in the source
Protocol: as §1, §2
b) the metabolic effect within the cell (was the compound metabolized);
as §3, §4

[5] = 24 h, Table 1, 24 h drug exposure, up to 200 μM, read-out: IC50
[6] = Table 2, FUdR linkage position 5', read-out: IC50
[7] = Table 4, Phosphate "bridge" O=P--O, read-out: IC50
[8] = Table 3, α-L configuration of the L-nucleoside, read-out: IC50
[9] = Table 3, β-L configuration of the L-nucleoside, read-out: IC50

SMILES	In vitro activity against P. falciparum, in words (P. falciparum)	IC50 (P. falciparum; [5]) [µM]	IC50 (P. falciparum; Erythrocyte, 24 h, Table 6, SATE derivatives of FUdR, read-out: ID50 (the source's name)) [µM]	toxicity against P. falciparum, in words (P. falciparum)	entry to the infected cell [1]	activity ranking in words, strain D6 [2]	activity ranking in words, strain W2 [3]	IC50 (P. falciparum; [6]) [µM]	IC50 (P. falciparum; [7]) [µM]	metabolism by the infected cells [4]	IC50 (P. falciparum; [8]) [µM]	IC50 (P. falciparum; [9]) [µM]	IC50 (P. falciparum; Table 4, Phosphorothioate "bridge" S=P--O, read-out: IC50) [µM]
O=c1[nH]c(=O)n([C@H]2C[C@@H](O)[C@H](CO)O2)cc1F [GCI 1027, 2'-deoxy-α-L-5-fluorouridine]	no activity	> 200	> 200	toxic against P. falciparum	entered the infected cells	–	–	–	–	–	–	–	–
Nc1ncnc2c1ncn2[C@H]1C[C@@H](O)[C@H](CO)O1 [GCI 1069, α-L-dA]	–	> 200	–	toxic against P. falciparum	entered the infected cells	–	–	–	–	–	–	–	–
O=c1[nH]c(=O)n([C@H]2C[C@H](OP(=O)(O)OC[C@H]3O[C@@H](n4cc(F)c(=O)[nH]c4=O)C[C@@H]3O)[C@@H](CO)O2)cc1F [L-101, [β-D]2 -FUdR]	most active	15	–	toxic against P. falciparum	entered the infected cells	most active	most active	15	15	metabolized by the infected cells	–	–	–
O=c1[nH]c(=O)n([C@H]2C[C@@H](OP(=O)(O)OC[C@H]3O[C@@H](n4cc(F)c(=O)[nH]c4=O)C[C@@H]3O)[C@H](CO)O2)cc1F [L-103]	–	20	–	toxic against P. falciparum	entered the infected cells	–	–	20	20	–	20	–	–
O=c1[nH]c(=O)n([C@@H]2C[C@@H](O)[C@H](COP(=O)(O)O[C@@H]3C[C@@H](n4cc(F)c(=O)[nH]c4=O)O[C@H]3CO)O2)cc1F [L-109, 3'-O-(β-L-5-fluoro-2'-deoxyuridinyl)-β-L-5-fluoro-2'-deoxyuridine]	did not exhibit any activity	> 200	–	not toxic	could not enter the infected cell	–	–	–	–	–	–	–	–
O=c1[nH]c(=O)n([C@@H]2C[C@@H](OP(=O)(O)OC[C@H]3O[C@@H](n4cc(F)c(=O)[nH]c4=O)C[C@@H]3O)[C@H](CO)O2)cc1F [L-110, 3'-O-(β-D-5-fluoro-2'-deoxyuridinyl)-β-L-5-fluoro-2'-deoxyuridine]	–	20	–	–	–	most active	most active	20	–	–	–	20	–
Nc1ccn([C@H]2C[C@@H](OP(=O)(O)OC[C@H]3O[C@@H](n4cc(F)c(=O)[nH]c4=O)C[C@@H]3O)[C@H](CO)O2)c(=O)n1 [L-111, 3'-O-(β-D-5-fluoro-2'-deoxyuridinyl)-α-L-2'-deoxycytidine]	most active; also recorded: no obvious difference in the activity	38	–	toxic against P. falciparum	entered the infected cells	–	–	38	–	–	38	–	–
O=c1ccn([C@@H]2C[C@@H](OP(=O)(O)OC[C@H]3O[C@@H](n4cc(F)c(=O)[nH]c4=O)C[C@@H]3O)[C@H](CO)O2)c(=O)[nH]1 [L-117]	–	35	–	toxic against P. falciparum	entered the infected cells	most active	most active	–	35	–	–	–	–
Nc1ncnc2c1ncn2[C@@H]1C[C@@H](OP(=O)(O)OC[C@H]2O[C@@H](n3cc(F)c(=O)[nH]c3=O)C[C@@H]2O)[C@H](CO)O1 [L-138, β-L-dA, β-D-FUdR]	most active	5	–	toxic against P. falciparum	entered the infected cells	most active	most active	5	5	metabolized by the infected cells	–	5	100
